These results are taken from patent publication US12157730B2, “Heteroaryl derivative, method for producing same, and pharmaceutical composition comprising same as effective component” (VORONOI INC., priority 2019, dated 2024).

The assay deals with T1, Ba/F3 cell EGFR Exon20 ins NPH (Homo sapiens, UniProt P00533, INS773NPH).
T1 construct: expressed in transfected cells; host or cells: Ba/F3
Briefly: Ba/F3 cell proliferation suppression, EGFR Exon20 ins NPH. It is filed as cell-based. The note with it: GI50 class; Ba/F3 cell line with NPH inserted at Exon20 of EGFR; 72 hours. In short, it runs like this:
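Cells (3000–5000/well) plated 24 h before compound, 12-point 3-fold dilutions at 0.3 nM to 50 um final; Ba/F3 lines grown with 5 ng/ml IL-3. Viability by CellTiter-Glo luminescence after 72 h, growth ratio vs control, GI50 from curves; triplicate.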
Turning to `C=CC(=O)Nc1cc(Nc2cc(N3OCC[C@@H]3c3ccc(F)c(Cl)c3)ncn2)c(OC)cc1N1CCC(N2C[C@H]3CC[C@@H](C2)O3)CC1` [compound 871, N-(2-(4-((1R,5S)-8-oxa-3-azabicyclo [3.2.1]octan-3-yl)piperidine-1-yl)-5-((6-((R)-3-(3-chloro-4-fluorophenyl)isoxazolidine-2-yl)pyrimidine-4-yl)amino)-4-methoxyphenyl) acrylamide], the “Ba/F3 (NPH) Activity” value was “A (GI50 < 50 nM)”.

For `C=CC(=O)Nc1cc(Nc2cc(N3OCC[C@@H]3c3c(F)ccc(F)c3Cl)ncn2)c(OC)cc1N1CCC(N2C[C@H]3C[C@@H]2CO3)CC1` [compound 692, N-(2-(4-((1R,4R)-2-oxa-5-azabicyclo[2.2.1]heptane-5-yl)piperidine-1-yl)-5-((6-((R)-3-(2-chloro-3,6-difluorophenyl)isoxazolidine-2-yl)pyrimidine-4-yl)amino)-4-methoxyphenyl) acrylamide], the “Ba/F3 (NPH) Activity” value is “A (GI50 < 50 nM)”.

Regarding `C=CC(=O)Nc1cc(Nc2cc(N3OCC[C@@H]3c3cccc(F)c3Cl)ncn2)c(OC)cc1N1CCC(N2CCN(C(C)C)CC2)CC1` [compound 661, N-(5-((6-((R)-3-(2-chloro-3-fluorophenyl)isoxazolidine-2-yl)pyrimidine-4-yl)amino)-2-(4-(4-isopropylpiperazine-1-yl)piperidine-1-yl)-4-methoxyphenyl) acrylamide], the “Ba/F3 (NPH) Activity” value is given as “A (GI50 < 50 nM)”.

For `C=CC(=O)Nc1cc(Nc2cc(N3OCC[C@@H]3Cc3cccc(Cl)c3C)ncn2)c(OC)cc1N1CCC(N2CCN(C3CC3)CC2)CC1` [compound 1025, N-(5-((6-((S)-3-(3-chloro-2-methylbenzyl)isoxazolidine-2-yl)pyrimidine-4-yl)amino)-2-(4-(4-cyclopropylpiperazine-1-yl)piperidine-1-yl)-4-methoxyphenyl) acrylamide], the “Ba/F3 (NPH) Activity” value is given as “A (GI50 < 50 nM)”.

Consider `C=CC(=O)Nc1cc(Nc2cc(N3OCC[C@@H]3c3ccc(F)c(F)c3)ncn2)c(OC)cc1N1CCC(N2CCOCC2)CC1` [compound 503, N-(5-((6-((R)-3-(3,4-difluorophenyl)isoxazolidine-2-yl)pyrimidine-4-yl)amino)-4-methoxy-2-(4-morpholinopiperidine-1-yl)phenyl)acrylamide], for which the “Ba/F3 (NPH) Activity” value was “A (GI50 < 50 nM)”.

For the compound `C=CC(=O)Nc1cc(Nc2cc(N3OCC[C@@H]3c3cccc4ccccc34)ncn2)c(OC)cc1N1CCC(N2C[C@@H](C)O[C@@H](C)C2)CC1` [compound 491, N-(2-(4-((2S,6R)-2,6-dimethylmorpholino)piperidine-1-yl)-4-methoxy-5-((6-((R)-3-(naphthalene-1-yl)isoxazolidine-2-yl)pyrimidine-4-yl)amino)phenyl)acrylamide], the “Ba/F3 (NPH) Activity” value is on record as “B (50 nM ≤ GI50 < 500 nM)”.

As to `C=CC(=O)Nc1cc(Nc2cc(N3OCC[C@@H]3c3ccc(C)nc3)ncn2)c(OC)cc1N1CCC(N2CCN(C(C)C)CC2)CC1` [Example 230, N-(2-(4-(4-isopropylpiperazine-1-yl)piperidine-1-yl)-4-methoxy-5-((6-((R)-3-(6-methylpyridine-3-yl)isoxazolidine-2-yl)pyrimidine-4-yl)amino)phenyl)acrylamide], the “Ba/F3 (NPH) Activity” value is recorded as “B (50 nM ≤ GI50 < 500 nM)”.

`C=CC(=O)Nc1cc(Nc2cc(N3OCC[C@@H]3c3ccc(Cl)c(F)c3)ncn2)c(OC)cc1N1CCC(N2CCN(C(C)C)CC2)CC1` [compound 708, N-(5-((6-((R)-3-(4-chloro-3-fluorophenyl)isoxazolidine-2-yl)pyrimidine-4-yl)amino)-2-(4-(4-isopropylpiperazine-1-yl)piperidine-1-yl)-4-methoxyphenyl) acrylamide]: the “Ba/F3 (NPH) Activity” value is reported as “A (GI50 < 50 nM)”.

For the compound `C=CC(=O)Nc1cc(Nc2cc(N3OCC[C@@H]3c3ccc(F)c(Cl)c3)ncn2)c(OC)cc1N1CCN(C(C)C)CC1` [compound 724, N-(5-((6-((R)-3-(3-chloro-4-fluorophenyl)isoxazolidine-2-yl)pyrimidine-4-yl)amino)-2-(4-isopropylpiperazine-1-yl)-4-methoxyphenyl) acrylamide], the “Ba/F3 (NPH) Activity” value is on record as “A (GI50 < 50 nM)”.

For `C=CC(=O)Nc1cc(Nc2cc(N3OCC[C@@H]3c3cc(F)cc(F)c3)ncn2)c(OC)cc1N1CCC(N2C[C@H]3CC[C@@H](C2)N3C2CC2)CC1` [Example 115, N-(2-(4-((1R,5S)-8-cyclopropyl-3,8-diazabicyclo[3.2.1]octan-3-yl)piperidine-1-yl)-5-((6-((R)-3-(3,5-difluorophenyl)isoxazolidine-2-yl)pyrimidine-4-yl)amino)-4-methoxyphenyl) acrylamide], the “Ba/F3 (NPH) Activity” value was “A (GI50 < 50 nM)”.

Consider `C=CC(=O)Nc1cc(Nc2cc(N3OCC[C@@H]3c3ccc(F)c(Cl)c3F)ncn2)c(OC)cc1N1C[C@@H](C)O[C@@H](C)C1` [compound 667, N-(5-((6-((R)-3-(3-chloro-2,4-difluorophenyl)isoxazolidine-2-yl)pyrimidine-4-yl)amino)-2-((2S,6R)-2,6-dimethylmorpholino)-4-methoxyphenyl) acrylamide], for which the “Ba/F3 (NPH) Activity” value is recorded as “B (50 nM ≤ GI50 < 500 nM)”.

With `C=CC(=O)Nc1cc(Nc2cc(N3OCC[C@@H]3c3cccc(OC)c3)ncn2)c(OC)cc1N1CCC(N2CCN(C3CC3)CC2)CC1` [Example 65, N-(2-(4-(4-cyclopropylpiperazine-1-yl)piperidine-1-yl)-4-methoxy-5-((6-((R)-3-(3-methoxyphenyl)isoxazolidine-2-yl)pyrimidine-4-yl)amino)phenyl) acrylamide], the “Ba/F3 (NPH) Activity” value is reported as “A (GI50 < 50 nM)”.

On to `C=CC(=O)Nc1cc(Nc2cc(N3OCC[C@@H]3c3ccc(Cl)c(Cl)c3)ncn2)c(OC)cc1N1CCN(CCN(C)C)CC1` [compound 686, N-(5-((6-((R)-3-(3,4-dichlorophenyl)isoxazolidine-2-yl)pyrimidine-4-yl)amino)-2-(4-(2-(dimethylamino)ethyl)piperazine-1-yl)-4-methoxyphenyl) acrylamide], for which the “Ba/F3 (NPH) Activity” value is reported as “B (50 nM ≤ GI50 < 500 nM)”.

Take `C=CC(=O)Nc1cc(Nc2cc(N3OCC[C@@H]3c3ccc(F)c(Cl)c3)ncn2)c(OC)cc1N1C[C@H]2C[C@@H]1CO2` [compound 903, N-(2-((1R,4R)-2-oxa-5-azabicyclo [2.2.1]heptane-5-yl)-5-((6-((R)-3-(3-chloro-4-fluorophenyl)isoxazolidine-2-yl)pyrimidine-4-yl)amino)-4-methoxyphenyl) acrylamide]: the “Ba/F3 (NPH) Activity” value is reported as “A (GI50 < 50 nM)”.

As to `C=CC(=O)Nc1cc(Nc2cc(N3OCC[C@@H]3c3cc(F)cc(F)c3)ncn2)c(OC)cc1N1CCC(N2CCN(C3CC3)[C@@H](C)C2)CC1` [Example 110, N-(2-(4-((S)-4-cyclopropyl-3-methylpiperazine-1-yl)piperidine-1-yl)-5-((6-((R)-3-(3,5-difluorophenyl)isoxazolidine-2-yl)pyrimidine-4-yl)amino)-4-methoxyphenyl) acrylamide], the “Ba/F3 (NPH) Activity” value is given as “A (GI50 < 50 nM)”.

In the case of `C=CC(=O)Nc1cc(Nc2cc(N3OCC[C@@H]3c3ccc(F)cc3)ncn2)c(OC)cc1N1CCC(N2C[C@@H](C)O[C@@H](C)C2)CC1` [compound 814, N-(2-(4-((2S,6R)-2,6-dimethylmorpholino)piperidine-1-yl)-5-((6-((R)-3-(4-fluorophenyl)isoxazolidine-2-yl)pyrimidine-4-yl)amino)-4-methoxyphenyl) acrylamide], the “Ba/F3 (NPH) Activity” value was “A (GI50 < 50 nM)”.

For `C=CC(=O)Nc1cc(Nc2cc(N3OCC[C@@H]3c3ccc(F)cc3F)ncn2)c(OC)cc1N1CCC(N2C[C@H]3C[C@@H]2CO3)CC1` [compound 423, N-(2-(4-((1R,4R)-2-oxa-5-azabicyclo [2.2.1]heptane-5-yl)piperidine-1-yl)-5-((6-((R)-3-(2,4-difluorophenyl)isoxazolidine-2-yl)pyrimidine-4-yl)amino)-4-methoxyphenyl) acrylamide], the “Ba/F3 (NPH) Activity” value is listed as “A (GI50 < 50 nM)”.

`C=CC(=O)Nc1cc(Nc2cc(N3OCC[C@@H]3c3ccc(Cl)c(F)c3)ncn2)c(OC)cc1N1CCC(N2CC[C@@H](N(C)C)C2)CC1` [compound 800, N-(5-((6-((R)-3-(4-chloro-3-fluorophenyl)isoxazolidine-2-yl)pyrimidine-4-yl)amino)-2-(4-((R)-3-(dimethylamino)pyrolidine-1-yl)piperidine-1-yl)-4-methoxyphenyl) acrylamide]: the “Ba/F3 (NPH) Activity” value is “A (GI50 < 50 nM)”.

On to `C=CC(=O)Nc1cc(Nc2cc(N3OCC[C@@H]3Cc3ccccc3)ncn2)c(OC)cc1N(C)CCOC` [compound 953, N-(5-((6-((S)-3-benzylisoxazolidine-2-yl)pyrimidine-4-yl)amino)-4-methoxy-2-((2-methoxyethyl) (methyl)amino)phenyl) acrylamide], for which the “Ba/F3 (NPH) Activity” value is on record as “B (50 nM ≤ GI50 < 500 nM)”.

Turning to `C=CC(=O)Nc1cc(Nc2cc(N3OCC[C@@H]3c3ccc(F)cc3)ncn2)c(OC)cc1N1CCC(N2CCN(C3CCC3)CC2)CC1` [Example 76, N-(2-(4-(4-cyclobutylpiperazine-1-yl)piperidine-1-yl)-5-((6-((R)-3-(4-fluorophenyl)isoxazolidine-2-yl)pyrimidine-4-yl)amino)-4-methoxyphenyl) acrylamide], the “Ba/F3 (NPH) Activity” value is “A (GI50 < 50 nM)”.

Consider `C=CC(=O)Nc1cc(Nc2cc(N3OCC[C@@H]3c3cc(F)cc(F)c3)ncn2)c(OC)cc1N1CCC(N2CCO[C@H](C)C2)CC1` [compound 758, N-(5-((6-((R)-3-(3,5-difluorophenyl)isoxazolidine-2-yl)pyrimidine-4-yl)amino)-4-methoxy-2-(4-((R)-2-methylmorpholino)piperidine-1-yl)phenyl) acrylamide], for which the “Ba/F3 (NPH) Activity” value is “B (50 nM ≤ GI50 < 500 nM)”.

As to `C=CC(=O)Nc1cc(Nc2cc(N3OCC[C@@H]3c3cccc(C)c3F)ncn2)c(OC)cc1N1CCC(N2CCN(C3CCC3)CC2)CC1` [Example 78, N-(2-(4-(4-cyclobutylpiperazine-1-yl)piperidine-1-yl)-5-((6-((R)-3-(2-fluoro-3-methylphenyl)isoxazolidine-2-yl)pyrimidine-4-yl)amino)-4-methoxyphenyl) acrylamide], the “Ba/F3 (NPH) Activity” value is “A (GI50 < 50 nM)”.
